The test system of one assay is SHP-2-R32A. The experiment in a line: SHP-2 phosphatase activity, DiFMUP substrate, R32A mutant. The class given is biochemical. Particulars: 4-Ahx spacer peptide; Fig. 5c. Here is the method: (§1) Catalytic activity of SHP-2 was monitored by a fluorescent assay using the substrate 6,8-difluoro-4-[…] (DiFMUP) as previously with slight modifications[38],[68]. Specifically, the phosphatase reactions were performed in 50 mM HEPES, pH 7.4, 100 mM NaCl and 10 mM DTT in 96-well black polystyrene plate, flat bottom, non-binding surface, using a final reaction volume of 100 µl. In all, 1.6 µg/ml of SHP-2-WT or mutant proteins were incubated with 20 µM DiFMUP with the indicated concentrations of phosphotyrosyl peptides or without peptide at 37 °C. For some experiments with highly SHP-2-activating peptides we used 0.5 µg/ml of SHP-2-WT so that activity measurements could fall within range. Fluorescence signal was monitored every 1 min for 3 min by a SpectraMax5 microplate reader and reaction rate was calculated by the change of fluorescence signal with time using excitation and emission wavelengths of 340 nm and 450 nm, respectively. Under these conditions, product formation was linear with respect to the time of incubation. Results were normalized against the basal activity determined for each condition in the absence of peptide and activity was calculated.

The test system of another assay is SHP-2-R138A. The experiment in a line: SHP-2 phosphatase activity, DiFMUP substrate, R138A mutant. The class given is biochemical. Particulars: Fig. 5c. On the procedure: as §1
A further assay concerns SHP-2-WT. The experiment in a line: SHP-2 phosphatase activity, DiFMUP substrate. It counts as biochemical.
The test system of assay [1] is PD-1-SmBiT: PD-1-LgBiT complex (PD-1: PD-1 interaction) in HEK-293 cells. The experiment in a line: NanoBiT assay for PD-1 dimerization in HEK-293 cells. The class given is cell-based, human. Particulars: HEK-293 transfected with PD-1-SmBiT, active Fyn and SHP-2, increasing amounts, Fig. 4e.

For the molecule “TE(pY)ATIVFP-Ahx4-QTE(pY)ATIVFPS [bpITSM, bisphosphoryl ITSM-ITSM peptide with 4-Ahx spacer]”, the “SHP-2 activity caused by peptide” value in the assay on SHP-2-R32A and with SHP-2-R138A (4-Ahx spacer peptide) was “abrogated” each time. Besides, in the assay with SHP-2-R138A, the “peptide concentration at which a small induction of SHP-2 activity was observed” value is given as “above 1 µM”. Besides, the “fold lower phosphopeptide concentration for robust increase in SHP-2 activity than pITIM-pITSM” value in the assay with SHP-2-WT (DiFMUP substrate, Fig. 5a) stood at 1000 fold. In addition, the “potency in inducing SHP-2 activation compared with bpIRS” value in the assay with SHP-2-WT (Supplementary Fig. 12, peptides at 20 nM) was “approximately three times more potent”.

`CC1(N)CCN(c2cnc(-c3cccc(Cl)c3Cl)c(N)n2)CC1` [SHP099]: in assay [1], the “effect on PD-1: PD-1 interaction” value was “dose-dependent inhibition of PD-1: PD-1 interaction”.

Source of the values: article PMC7078208, “Interaction of SHP-2 SH2 domains with PD-1 ITSM induces PD-1 dimerization and SHP-2 activation” (Communications Biology, 2020).
